Results on 17 molecules are retold here after ChEMBL document CHEMBL3785016, “Design, synthesis, and anti-breast cancer evaluation of new triarylethylene analogs bearing short alkyl- and polar amino-/amido-ethyl chains” (Bioorg Med Chem Lett, 2016).

Assay [1] concerns MCF7. The assay is described as follows: Cytotoxicity against human ER-positive MCF7 cells assessed as cell viability after 72 hrs by MTT assay. It is filed as functional, cell-based.
Assay [2] relates to MDA-MB-231. The assay can be described thus: Cytotoxicity against human ER-negative MDA-MB-231 cells assessed as cell viability after 72 hrs by MTT assay. The assay is classed as functional, cell-based. The conditions noted are these: for IC50: MDA-MB-231, 72 h.
The test system of assay [3] is MCF7. The assay is described as follows: Inhibition of caveolin-1 expression in human ER-positive MCF7 cells after 24 hrs by western blotting. It is filed as functional, cell-based.
The subject of assay [4] is MDA-MB-231. The assay can be described thus: Inhibition of cell invasion in human ER-negative MDA-MB-231 cells after 24 hrs by Boyden chamber transwell invasion assay. The assay is classed as functional, cell-based.
In assay [5] the test system is MDA-MB-231. The assay is described as follows: Antimigratory activity in human ER-negative MDA-MB-231 cells assessed as cell migration level at 0.5 uM after 24 hrs by scratch assay. It is filed as functional.
The test system of assay [6] is MCF7. The assay can be described thus: Inhibition of MMP9 expression in human ER-positive MCF7 cells after 24 hrs by western blotting. The assay is classed as functional, cell-based.
Assay [7] deals with MDA-MB-231. The assay can be described thus: Inhibition of c-Myc expression in human ER-negative MDA-MB-231 cells after 24 hrs by western blotting. It is filed as functional, cell-based.
The test system of assay [8] is MDA-MB-231. The assay can be described thus: Antimigratory activity in human ER-negative MDA-MB-231 cells assessed as cell migration level at 1 uM after 24 hrs by scratch assay. It is filed as functional.
The test system of assay [9] is MCF7. The assay is described as follows: Inhibition of c-Myc expression in human ER-positive MCF7 cells after 24 hrs by western blotting. The assay is classed as functional, cell-based.
The subject of assay [10] is MDA-MB-231. The assay can be described thus: Inhibition of MMP9 expression in human ER-negative MDA-MB-231 cells after 24 hrs by western blotting. It is filed as functional, cell-based.
Assay [11] has as its system MDA-MB-231. The assay can be described thus: Inhibition of caveolin-1 expression in human ER-negative MDA-MB-231 cells after 24 hrs by western blotting. It is filed as functional, cell-based.
Assay [12] has as its system MDA-MB-231. The assay is described as follows: Inhibition of caveolin-1 expression in human ER-negative MDA-MB-231 cells at 10 and 25 uM after 24 hrs by western blotting. It is filed as functional, cell-based.
Assay [13] relates to MDA-MB-231. The assay can be described thus: Inhibition of MMP9 expression in human ER-negative MDA-MB-231 cells at 10 and 25 uM after 24 hrs by western blotting. The assay is classed as functional, cell-based.
For assay [14], the system named is MCF7. The assay is described as follows: Inhibition of caveolin-1 expression in human ER-positive MCF7 cells at 10 and 25 uM after 24 hrs by western blotting. It is filed as functional, cell-based.
In assay [15] the test system is MCF7. The assay can be described thus: Inhibition of c-Myc expression in human ER-positive MCF7 cells at 10 and 25 uM after 24 hrs by western blotting. The assay is classed as functional, cell-based.
Assay [16] has as its system MDA-MB-231. The assay can be described thus: Inhibition of c-Myc expression in human ER-negative MDA-MB-231 cells at 10 and 25 uM after 24 hrs by western blotting. It is filed as functional, cell-based.
In assay [17] the test system is MCF7. The assay is described as follows: Inhibition of MMP9 expression in human ER-positive MCF7 cells at 10 and 25 uM after 24 hrs by western blotting. The assay is classed as functional, cell-based.
The mark [18] stands for this setting: Homo sapiens, MCF7, 72 h, read-out: IC50.

Structures are written as SMILES. The source made the active and inactive calls. The rule behind the calls is not given here. Bounds are passed on as bounds.

On to `COc1ccc(/C(=C(/CCN=[N+]=[N-])c2ccccc2)c2ccccc2)cc1`, for which the IC50 result in assay [1] (mcf7) is reported as “Not Active”. Moreover, the outcome in [2] was inactive.
Consider `COc1ccc(/C(=C(/CCNC(=O)C(=O)N2CCCCC2)c2ccccc2)c2ccccc2)cc1`, for which the IC50 in [1] (setting [18]) and in [2] was more than 50 µM in each case.
As to `COc1ccc(/C(=C(/CCN)c2ccccc2)c2ccccc2)cc1`, the inhibition result in assay [3], in [4], in assay [6], in [7], in [9] and in assay [10] was “Dose-dependent effect” each time. In addition, the inhibition entry in assay [11] was “Dose-dependent effect”. In addition, the Activity worked out at 60% in assay [5] and 25% in assay [8].
As to `CCOC(=O)C(=O)NCC/C(=C(\c1ccccc1)c1ccc(OC)cc1)c1ccccc1`, the IC50 in [1] (setting [18]) and in assay [2] was more than 50 µM each time.
Take `OCCOc1ccc(/C(=C(/CCCl)c2ccccc2)c2ccccc2)cc1` [OSPEMIFENE]: the IC50 in assay [1] (setting [18]) and in assay [2] was more than 50 µM in each case. Also, the outcome in [8] was inactive.
Regarding `COc1ccc(/C(=C(/CCNC(=O)NCc2ccccc2)c2ccccc2)c2ccccc2)cc1`, the IC50 in assay [1] (setting [18]) and in assay [2] was more than 50 µM each time.
Turning to `COc1ccc(/C(=C(/CCNC(=O)C(=O)N2CCOCC2)c2ccccc2)c2ccccc2)cc1`, the figures for the IC50 in assay [1] (setting [18]) and in assay [2] were 43.4 µM and 20 µM, respectively.
For the molecule `COc1ccc(/C(=C(/CCNC(=O)C(=O)NCc2ccccc2)c2ccccc2)c2ccccc2)cc1`, the IC50 in assay [1] (setting [18]) is more than 50 µM; in [2], 11.5 µM. In addition, the inhibition entry in [12] and in assay [14] was “inactive” throughout. Moreover, the outcome in [8] was inactive. For the same molecule, the inhibition entry in assay [13], in assay [15], in [16] and in assay [17] was “Active” in each case.
Regarding `CCN(CC)C(=O)NCC/C(=C(\c1ccccc1)c1ccc(OC)cc1)c1ccccc1`, the figures for the half-inhibitory concentration (IC50) in assay [1] (setting [18]) and in assay [2] were more than 50 µM and 40.7 µM, respectively.
Consider `COc1ccc(/C(=C(/CCNC(=O)Oc2ccccc2)c2ccccc2)c2ccccc2)cc1`, for which the IC50 result in [1] (mcf7) is recorded as “Not Active”. The outcome in assay [2] was inactive.
For the molecule `COc1ccc(/C(=C(/CCNC(=O)C(=O)NC2CCCCC2)c2ccccc2)c2ccccc2)cc1`, the figures for the IC50 in [1] (setting [18]) and in assay [2] were 12.1 µM and 12.2 µM, respectively. For the same molecule, the inhibition result in assay [12] and in [14] was “inactive” throughout. For the same molecule, the result in assay [8] was inactive. The inhibition entry in [13], in assay [15], in [16] and in assay [17] was “Active” throughout.
Regarding `COc1ccc(/C(=C(/CCNC(=O)N2CCCCC2)c2ccccc2)c2ccccc2)cc1`, the IC50 in assay [1] (setting [18]) and in assay [2] was more than 50 µM in each case.
Take `COc1ccc(/C(=C(/CCNC(=O)N2CCOCC2)c2ccccc2)c2ccccc2)cc1`: the IC50 in [1] (setting [18]) is more than 50 µM; in [2], 42.8 µM.
The matching figures for `COc1ccc(/C(=C(/CCNC(=O)NC2CCCCC2)c2ccccc2)c2ccccc2)cc1`: 37.2 µM and more than 50 µM.
On to `COc1ccc(/C(=C(/CCCl)c2ccccc2)c2ccccc2)cc1`, for which the IC50 in assay [1] (setting [18]) and in assay [2] was more than 50 µM in each case.
As to `COc1ccc(/C(=C(/CCNC(=O)C(=O)N2CCCC2)c2ccccc2)c2ccccc2)cc1`, the IC50 is more than 50 µM in assay [1] (setting [18]) and 48.6 µM in assay [2].
On to `COc1ccc(/C(=C(/CCNC(=O)N2CCCC2)c2ccccc2)c2ccccc2)cc1`, for which the IC50 in assay [1] (setting [18]) and in assay [2] was more than 50 µM throughout.
